Data on 9 compounds can be found in article PMC8766756, “Insights on Cancer Cell Inhibition, Subcellular Activities, and Kinase Profile of Phenylacetamides Pending 1H-Imidazol-5-One Variants” (Frontiers in Pharmacology, 2022).

Series [1] deals with MCF7 breast cancer cell line. Description: SRB cytotoxicity assay. It is filed as cell-based, human. To be noted: for IC50: Homo sapiens, MCF7, 72 h, MCF7, SRB, 72 h, read-out: IC50 ± SEM MCF7. The method, then: (§1) The compounds were screened for their anticancer activities against a variety of cancer cell lines. The cytotoxic effect of the compounds was evaluated using the sulforhodamine B (SRB) cytotoxicity assay for breast cancer line (MCF7) and prostate cancer cell line (PC3) ([Vichai and Kirtikara, 2006]; [Rana et al., 2021]) and 3-(4,5-dimethylthiazol-2-yl)-2,5-diphenyl-2H-tetrazolium bromide (MTT) assay for the colon cancer (HCT116) cell lines ([El-Huneidi et al., 2020]). The CellTiter-Blue® cell viability assay was performed on the various leukemia cell lines, HL60, NB4, and KG1a cells ([Akter et al., 2019]). The IC50 values are illustrated in Table 1.
(§2) MCF7 (breast), PC3 (prostate), and HCT116 (colon) cancer cell lines were obtained from ATCC, Manassas, VA, USA. Cells were grown in Roswell Park Memorial Institute-1640 (RPMI-1640) medium (Thermo Fisher Scientific, Inc., Waltham, MA, USA), supplemented with 10% heat inactivated fetal bovine serum (FBS), 50 units/mL of penicillin, and […] of streptomycin and maintained at 37°C in a humidified atmosphere containing 5% CO2. The cells were maintained as “monolayer culture” by serial subculturing.
(§3) Exponentially growing MCF7 and PC3 cells were collected using 0.25% Trypsin-EDTA and were then seeded in 96-well plates at a density of 1,000–2,000 cells/well in 10% FBS and penicillin/streptomycin supplemented RPMI-1640 medium. After 24 h, the cells were treated with different concentrations of the test compounds and incubated for 72 h at 37°C in a humidified atmosphere containing 5% CO2. Next, the cells were fixed by trichloroacetic acid (TCA) (10% final concentration in wells) directly to the wells and incubated for 1 h at 4°C, then the cells were washed with distilled water five times to remove excess TCA, media, serum proteins, and metabolites, followed by air drying. After that, the fixed cells were stained with 0.4% SRB dissolved in 1% acetic acid for 10 min at room temperature, and excess stain was removed by quickly rinsing with 1% acetic acid. The residual acetic acid was removed completely by air drying the plates for 24 h, and the dye was solubilized with Tris buffer (pH = 7.4, 10 mM) for 5 min on a shaker at 1,600 rpm. The optical density of each well was measured spectrophotometrically at 564 nm with an ELISA microplate reader (ChroMate-4300, FL, USA). The IC50 values were calculated according to the equation for Boltzman sigmoidal concentration–response curve using the nonlinear regression fitting models (GraphPad®, Prism Version 5).

For series [2], the system named is PC3 prostate cancer cell line. Description: SRB cytotoxicity assay. It is filed as cell-based, human. To be noted: Homo sapiens, 72 h, read-out: IC50 ± SEM PC3. As for the experimental part: as §1, §2, §3
Series [3] relates to HCT116 colon cancer cell line. Description: MTT antiproliferative assay. It is filed as cell-based. To be noted: Homo sapiens, HCT-116; HCT116, MTT, 72 h; read-out: IC50 ± SEM HCT116. The method, then:
as §1, §2
The test compounds were evaluated for antiproliferative activity using the MTT viability assay against the HCT116 cell line. The cells were seeded in triplicate in 96-well plates at a density of 10 × 10^3 cells/mL in a total volume of 200 µL per well. 0.1% of DMSO was used as a vehicle control. Each well was treated with 2 µL of test compound, which had been preprepared as stock solutions in ethanol to furnish the concentration range of the study, 0.1–50 μM, and re-incubated for a further 72 h at 37°C in a humidified atmosphere containing 5% CO2. The culture medium was then removed, and the cells were washed with 100 µL of PBS, and 100 µL of MTT was added, to reach a final concentration of 1 mg/ml of MTT. The cells were incubated for 3 h in darkness at 37°C. After removal of MTT solution, solubilization was initiated through the addition of […] of DMSO, and the cells were maintained at room temperature in darkness for 20 min to ensure thorough color diffusion before reading the absorbance with a microplate reader at 570 nm. The results were expressed as percentage viability relative to vehicle control (100%). The dose–response curves were plotted, and the IC50 values (concentration of drug resulting in 50% reduction in cell survival) were obtained using the commercial software package Prism (GraphPad® Software, Inc., La Jolla, CA, USA). All the experiments were repeated in at least three independent experiments.

Another series concerns tubulin polymerization. Set-up: method as in earlier work. The note with it: ref Hangauer, 2007; Smolinski et al., 2018; Markham and Duggan, 2021; read-out: tubulin polymerization inhibition IC50; cited from earlier work.
In the next series the target is Src kinase. The arrangement: method as in Antonarakis et al., 2013. The note with it: ref Antonarakis et al., 2013; read-out: Src kinase inhibition IC50; cited from earlier work.
The subject of the next series is HL60 leukemia cell line. Briefly: CellTiter-Blue cell viability assay. It is filed as cell-based. To be noted: Homo sapiens, HL-60, 48 h, read-out: IC50 ± SEM HL60. As for the experimental part: as §1
HL60, NB4, and KG1a were purchased from CLS Cell Line Service GmbH (Eppelheim, Germany). All cell lines were cultured in RPMI-1640 medium supplemented with 10% FBS (Thermo Fisher Scientific) and ciprofloxacin (10 μg/ml; Cipla Limited; Mumbai, India), at 37°C with 5% CO2 in a humidified incubator.
The CellTiter-Blue® Cell Viability assay was acquired from Promega Corporation (Madison, WI, USA). The cell viability assay was performed as follows: the cells (10^4/well) were incubated with a concentration gradient of the test compounds ranging from 0.01 to 100 μM, in 96-well plates for 48 h at 37°C. Subsequently, 20 µL of the CellTiter-Blue® Cell Viability reagent was added to each well and incubated for an additional 2 h for the development of fluorescence. The fluorescence emission was measured at 590 nm using the SpectraMax® i3x Multi-Mode Microplate Reader (Molecular Devices, LLC; San Jose, CA, USA.) and plotted against the drug concentrations to determine the IC50 of the test compounds.

`O=C(Cc1ccc(N2C(=O)/C(=C/c3ccccc3)N=C2c2ccccc2)cc1)NCc1ccccc1` [Compound 4e, (Z)-N-Benzyl-2-(4-(4-benzylidene-5-oxo-2-phenyl-4,5-dihydro-1H-imidazol-1-yl)phenyl)acetamide] had a melting point of 218 to 219 °C. Further, the IC50 in series [1] is 34.9 ± 8.08 µM. The IC50 in series [2] stood at 41.7 ± 2.99 µM.
As to `CC1=N/C(=C\c2ccc(Cl)cc2)C(=O)N1c1ccc(CC(=O)NCc2ccccc2)cc1` [Compound 4b, (Z)-N-Benzyl-2-(4-(4-(4-chlorobenzylidene)-2-methyl-5-oxo-4,5-dihydro-1H-imidazol-1-yl)phenyl)acetamide], the melting point is 209 to 211 °C. In series [3], the IC50 is greater than 50 µM. In addition, in series [1], the IC50 turned out to be 20.8 ± 1.35 µM. For the same compound, the 50% inhibitory concentration (IC50) in series [2] turned out to be 6.87 ± 0.41 µM.
As for `COc1cc(/C=C2\N=C(c3ccccc3)N(c3ccc(CC(=O)NCc4ccccc4)cc3)C2=O)ccc1O` [Compound 4h, (Z)-N-Benzyl-2-(4-(4-(4-hydroxy-3-methoxybenzylidene)-5-oxo-2-phenyl-4,5-dihydro-1H-imidazol-1-yl)phenyl)acetamide], the melting point lay within 109 to 112 °C. The IC50 in series [1] was 35.1 ± 4.57 µM. Also, the IC50 in series [2] amounted to 37.5 ± 15.4 µM.
`COc1ccc(C=C(NC(C)=O)C(=O)Nc2ccc(CC(=O)NCc3ccccc3)cc2)cc1` (stereo in doubt) [Compound 5, (E)-2-acetamido-N-(4-(2-(benzylamino)-2-oxoethyl)phenyl)-3-(4-methoxyphenyl) acrylamide]: the melting point was 189 to 200 °C. For the same compound, the IC50 in series [1] was 44.3 ± 9.2 µM. The “times less active than 4c (KIM-161)” value in series [1] (on MCF7 and PC3 cells) is 20–40 times. Also, the IC50 in series [2] was determined as 41.1 ± 9.55 µM.
Consider `CC1=N/C(=C\c2ccccc2)C(=O)N1c1ccc(CC(=O)NCc2ccccc2)cc1` [Compound 4a, (Z)-N-Benzyl-2-(4-(4-benzylidene-2-methyl-5-oxo-4,5-dihydro-1H-imidazol-1-yl)phenyl)acetamide], for which the melting point was 164 to 165 °C. Also, the IC50 in series [1] came to 11.6 ± 2.01 µM. Further, in series [2], the IC50 turned out to be 1.67 ± 0.66 µM.
Consider `O=C(Cc1ccc(-c2ccc(OCCN3CCOCC3)cc2)cn1)NCc1ccccc1` [KX2-391, Tirbanibulin], for which the results for the IC50 in the series on tubulin polymerization and at Src kinase were 0.25 µM and 0.025 µM, respectively.
With `COc1cc(/C=C2\N=C(C)N(c3ccc(CC(=O)NCc4ccccc4)cc3)C2=O)ccc1O` [Compound 4d, (Z)-N-Benzyl-2-(4-(4-(4-hydroxy-3-methoxybenzylidene)-2-methyl-5-oxo-4,5-dihydro-1H-imidazol-1-yl)phenyl)acetamide], the IC50 worked out at 6.13 ± 1.35 µM in series [3], 1.44 ± 0.07 µM in the series with HL60 leukemia cell line, 9.48 ± 1.16 µM in series [1] and 5.83 ± 1.44 µM in series [2].
The compound `O=C(Cc1ccc(N2C(=O)/C(=C/c3ccc(Cl)cc3)N=C2c2ccccc2)cc1)NCc1ccccc1` [Compound 4f, (Z)-N-Benzyl-2-(4-(4-(4-chlorobenzylidene)-5-oxo-2-phenyl-4,5-dihydro-1H-imidazol-1-yl)phenyl)acetamide] showed a melting point of 218 to 220 °C. Moreover, the IC50 in series [1] turned out to be 44.2 ± 8.67 µM. Also, the IC50 in series [2] was found to be 74.2 ± 12.3 µM.
Take `COc1ccc(/C=C2\N=C(c3ccccc3)N(c3ccc(CC(=O)NCc4ccccc4)cc3)C2=O)cc1` [Compound 4g, (Z)-N-Benzyl-2-(4-(4-(4-methoxybenzylidene)-5-oxo-2-phenyl-4,5-dihydro-1H-imidazol-1-yl)phenyl)acetamide]: the melting point was 193 °C. In addition, the IC50 in series [1] turned out to be 32.1 ± 3.98 µM. Besides, the “activity relative to KIM-161” value in series [1] (phenyl instead of methyl, Table 1) is given as “less than one-tenth”. Further, the IC50 in series [2] stood at 38.7 ± 5.01 µM.
